Measured values from ChEMBL document CHEMBL1151072, “Benzoxepin and benzothiepin derivatives as potent, orally active inhibitors of 5-lipoxygenase” (Bioorg Med Chem Lett, 1994).

How the values were obtained:
Canis familiaris [1] = test: Inhibitory activity against LTB4 production upon intravenous administration at a dose of 1.0 mg/Kg (0.08-6.0 hour) in dog ex vivo model; assay type: functional; settings: Canis lupus familiaris
Canis familiaris [2] = test: Inhibitory activity against LTB4 production upon oral administration at a dose of 1.0 mg/Kg (0.08-6.0 hour) in dog ex vivo model; assay type: functional; settings: Canis lupus familiaris
Canis familiaris [3] = test: Inhibitory activity against LTB4 production upon intravenous administration at a dose of 1.0 mg/Kg (3 hours) in dog ex vivo model; assay type: functional; settings: Canis lupus familiaris
Canis familiaris [4] = test: Duration of action on LTB4 production upon intravenous administration at a dose of 1.0 mg/Kg in dog ex vivo model; assay type: functional, Canis lupus familiaris
Canis familiaris [5] = test: Duration of action on LTB4 production upon oral administration at a dose of 1.0 mg/Kg in dog ex vivo model; assay type: functional, Canis lupus familiaris
Canis familiaris [6] = test: Inhibitory activity against LTB4 production upon oral administration at a dose of 1.0 mg/Kg (0.5 hours) in dog ex vivo model; assay type: functional; settings: Canis lupus familiaris
Canis familiaris [7] = test: Inhibitory activity against LTB4 production upon intravenous administration at a dose of 1.0 mg/Kg (0.08 hours) in dog ex vivo model; assay type: functional; settings: Canis lupus familiaris
Canis familiaris [8] = test: Inhibitory activity against LTB4 production upon oral administration at a dose of 1.0 mg/Kg (1 hour) in dog ex vivo model; assay type: functional; settings: Canis lupus familiaris
Canis familiaris [9] = test: Inhibitory activity against LTB4 production upon intravenous administration at a dose of 1.0 mg/Kg (0.25-0.5 hour) in dog ex vivo model; assay type: functional; settings: Canis lupus familiaris
Canis familiaris [10] = test: Inhibitory activity against LTB4 production upon intravenous administration at a dose of 1.0 mg/Kg (0.08-1 hour) in dog ex vivo model; assay type: functional; settings: Canis lupus familiaris
Canis familiaris [11] = test: Inhibitory activity against LTB4 production upon oral administration at a dose of 1.0 mg/Kg (0.25-6.0 hour) in dog ex vivo model; assay type: functional; settings: Canis lupus familiaris
Canis familiaris [12] = test: Inhibitory activity against LTB4 production upon intravenous administration at a dose of 1.0 mg/Kg (0.08-0.5 hour) in dog ex vivo model; assay type: functional; settings: Canis lupus familiaris
Canis familiaris [13] = test: Inhibitory activity against LTB4 production upon oral administration at a dose of 1.0 mg/Kg (0.5-1 hour) in dog ex vivo model; assay type: functional; settings: Canis lupus familiaris

Q: How did the inhibition in vivo at 1 mg/kg (Canis familiaris [1]) turn out when NC(=O)N(O)CC1=Cc2cc(Oc3ccccc3)ccc2OC1 was run?
A: > 95%

Q: And the inhibition in vivo at 1 mg/kg (Canis familiaris [2])?
A: > 95%

Q: Which results are given for NC(=O)N(O)CC1=Cc2cc(Oc3ccccc3)ccc2OCC1?
A: inhibition in vivo at 1 mg/kg (Canis familiaris [3]): 80%; Duration of action (Canis familiaris [4]): 19.4; Duration of action (Canis familiaris [5]): 9.1; inhibition in vivo at 1 mg/kg (Canis familiaris [6]): 94%

Q: NC(=O)N(O)CC1=Cc2ccc(Oc3ccccc3)cc2OCC1 was tested. Which inhibition in vivo at 1 mg/kg (Canis familiaris [7]) did it give?
A: > 95%

Q: What about the Duration of action (Canis familiaris [4]) of the same compound?
A: 1.1

Q: And the inhibition in vivo at 1 mg/kg (Canis familiaris [8])?
A: 28%

Q: For NC(=O)N(O)CC1=Cc2cc(Oc3ccc(F)cc3)ccc2OCC1, which Duration of action (Canis familiaris [4]) is on record?
A: >24

Q: What about the inhibition in vivo at 1 mg/kg (Canis familiaris [9]) of the same compound?
A: > 95%

Q: What about the Duration of action (Canis familiaris [5]) of the same compound?
A: 10

Q: And the inhibition in vivo at 1 mg/kg (Canis familiaris [8])?
A: > 95%

Q: Which results are given for NC(=O)N(O)CC1=Cc2cc(Oc3ccccc3)ccc2SCC1?
A: Duration of action (Canis familiaris [4]): 2.8; inhibition in vivo at 1 mg/kg (Canis familiaris [10]): > 95%

Q: CNC(=O)N(O)CC1=Cc2cc(Oc3ccc(F)cc3)ccc2OCC1 was tested. Which Duration of action (Canis familiaris [4]) did it give?
A: 13

Q: And the inhibition in vivo at 1 mg/kg (Canis familiaris [11])?
A: > 95%

Q: What about the Duration of action (Canis familiaris [5]) of the same compound?
A: 13

Q: And the inhibition in vivo at 1 mg/kg (Canis familiaris [10])?
A: > 95%

Q: For CC(c1cc2ccccc2s1)N(O)C(N)=O (stereo unspecified) [ZILEUTON], which inhibition in vivo at 1 mg/kg (Canis familiaris [12]) is on record?
A: > 90%

Q: And the inhibition in vivo at 1 mg/kg (Canis familiaris [13])?
A: > 90%
